Experimental data from ChEMBL document CHEMBL4715821, “Discovery of 4-ethoxy-7H-pyrrolo[2,3-d]pyrimidin-2-amines as potent, selective and orally bioavailable LRRK2 inhibitors” (Bioorg Med Chem Lett, 2018).

What was measured:
[1] = biological target: Ribosomal protein S6 kinase alpha-4 (Homo sapiens) (UniProt O75676); assay: Inhibition of wild-type human partial length N-terminal RPS6KA4 kinase domain 1 expressed in bacterial expression system assessed as residual activity at 1 uM by Kinomescan method relative to control
[2] = biological target: Dual specificity tyrosine-phosphorylation-regulated kinase 1A (Homo sapiens) (UniProt Q13627); assay: Inhibition of wild-type human partial length DYRK1A (H129 to S509 residues) expressed in mammalian expression system assessed as residual activity at 1 uM by Kinomescan method relative to control
[3] = biological target: Tyrosine-protein kinase ITK/TSK (Homo sapiens) (UniProt Q08881); assay: Inhibition of wild-type human partial length ITK (R335 to L620 residues) expressed in bacterial expression system assessed as residual activity at 1 uM by Kinomescan method relative to control
Tyrosine-protein kinase ITK/TSK (Homo sapiens), sequence (Q08881 whole entry, the tested form may be a part): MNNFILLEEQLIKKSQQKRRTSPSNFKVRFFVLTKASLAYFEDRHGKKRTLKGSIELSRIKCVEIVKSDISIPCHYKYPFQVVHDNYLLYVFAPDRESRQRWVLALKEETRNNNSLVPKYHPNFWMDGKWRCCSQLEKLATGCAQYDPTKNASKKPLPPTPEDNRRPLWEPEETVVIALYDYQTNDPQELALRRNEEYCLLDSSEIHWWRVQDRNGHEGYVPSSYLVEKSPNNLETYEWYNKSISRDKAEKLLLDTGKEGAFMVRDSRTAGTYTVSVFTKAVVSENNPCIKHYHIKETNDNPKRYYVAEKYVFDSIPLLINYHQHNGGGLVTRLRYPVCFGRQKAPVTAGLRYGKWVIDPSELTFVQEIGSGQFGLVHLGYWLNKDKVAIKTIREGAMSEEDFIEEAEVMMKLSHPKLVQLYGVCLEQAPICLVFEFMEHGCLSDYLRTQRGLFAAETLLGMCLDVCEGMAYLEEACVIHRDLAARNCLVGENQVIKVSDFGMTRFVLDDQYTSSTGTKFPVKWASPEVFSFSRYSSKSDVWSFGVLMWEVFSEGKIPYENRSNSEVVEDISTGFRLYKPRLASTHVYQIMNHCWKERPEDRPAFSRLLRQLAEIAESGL

[4] = biological target: Serine/threonine-protein kinase Nek2 (Homo sapiens) (UniProt P51955); assay: Inhibition of wild-type human partial length NEK2 (M1 to K309 residues) expressed in bacterial expression system assessed as residual activity at 1 uM by Kinomescan method relative to control
Serine/threonine-protein kinase Nek2 (Homo sapiens), sequence (P51955 whole entry, the tested form may be a part): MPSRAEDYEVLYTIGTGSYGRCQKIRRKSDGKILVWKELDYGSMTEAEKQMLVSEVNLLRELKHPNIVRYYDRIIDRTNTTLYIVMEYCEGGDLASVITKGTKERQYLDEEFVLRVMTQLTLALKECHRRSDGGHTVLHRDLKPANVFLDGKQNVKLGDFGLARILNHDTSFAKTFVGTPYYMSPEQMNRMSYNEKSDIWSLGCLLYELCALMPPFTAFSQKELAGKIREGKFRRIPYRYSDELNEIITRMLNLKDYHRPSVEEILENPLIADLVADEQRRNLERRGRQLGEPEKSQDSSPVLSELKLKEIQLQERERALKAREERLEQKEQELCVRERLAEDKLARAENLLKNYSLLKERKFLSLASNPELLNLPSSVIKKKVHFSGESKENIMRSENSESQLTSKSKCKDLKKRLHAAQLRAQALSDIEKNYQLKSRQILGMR

[5] = biological target: Tyrosine-protein kinase SYK (Homo sapiens) (UniProt P43405); assay: Inhibition of wild-type human partial length SYK (D354 to N635 residues) expressed in bacterial expression system assessed as residual activity at 1 uM by Kinomescan method relative to control
[6] = biological target: Dual specificity protein kinase CLK1 (Homo sapiens) (UniProt P49759); assay: Inhibition of wild-type human full length CLK1 (M1 to I484 residues) expressed in bacterial expression system assessed as residual activity at 1 uM by Kinomescan method relative to control
Dual specificity protein kinase CLK1 (Homo sapiens), sequence (P49759 whole entry, looked up, the tested form may be a part, canonical isoform): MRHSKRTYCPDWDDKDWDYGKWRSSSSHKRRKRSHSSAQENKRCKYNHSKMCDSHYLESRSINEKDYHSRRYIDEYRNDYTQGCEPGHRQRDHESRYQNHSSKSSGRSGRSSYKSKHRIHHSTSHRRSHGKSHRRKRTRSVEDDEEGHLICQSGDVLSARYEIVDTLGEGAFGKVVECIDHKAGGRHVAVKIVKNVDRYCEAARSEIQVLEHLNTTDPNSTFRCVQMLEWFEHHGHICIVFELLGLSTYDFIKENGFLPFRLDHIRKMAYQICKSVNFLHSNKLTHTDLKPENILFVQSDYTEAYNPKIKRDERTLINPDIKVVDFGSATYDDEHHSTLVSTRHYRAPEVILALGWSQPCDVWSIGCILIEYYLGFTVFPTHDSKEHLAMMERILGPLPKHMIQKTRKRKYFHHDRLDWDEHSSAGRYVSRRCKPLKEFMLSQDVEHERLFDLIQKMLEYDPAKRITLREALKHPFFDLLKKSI

[7] = biological target: Casein kinase I isoform gamma-3 (Homo sapiens) (UniProt Q9Y6M4); assay: Inhibition of CK1g3 (unknown origin) assessed as residual activity at 1 uM by Kinomescan method relative to control
Casein kinase I isoform gamma-3 (Homo sapiens), sequence (Q9Y6M4 whole entry, looked up, the tested form may be a part, canonical isoform): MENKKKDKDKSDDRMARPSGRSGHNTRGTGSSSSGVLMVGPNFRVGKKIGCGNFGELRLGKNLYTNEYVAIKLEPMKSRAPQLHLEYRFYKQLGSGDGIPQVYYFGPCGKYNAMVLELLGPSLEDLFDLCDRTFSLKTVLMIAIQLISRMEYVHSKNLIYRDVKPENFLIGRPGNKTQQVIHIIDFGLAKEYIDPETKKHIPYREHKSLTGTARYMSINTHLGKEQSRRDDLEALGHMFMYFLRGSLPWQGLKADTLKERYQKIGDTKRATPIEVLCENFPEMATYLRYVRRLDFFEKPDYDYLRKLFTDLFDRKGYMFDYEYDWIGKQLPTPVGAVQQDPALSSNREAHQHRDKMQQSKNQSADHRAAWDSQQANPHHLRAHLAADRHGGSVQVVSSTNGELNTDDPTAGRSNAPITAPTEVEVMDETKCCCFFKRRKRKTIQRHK

[8] = biological target: Homeodomain-interacting protein kinase 3 (Homo sapiens) (UniProt Q9H422); assay: Inhibition of wild-type human partial length HIPK3 (M153 to N562 residues) expressed in mammalian expression system assessed as residual activity at 1 uM by Kinomescan method relative to control
[9] = biological target: Receptor-interacting serine/threonine-protein kinase 3 (Homo sapiens) (UniProt Q9Y572); assay: Inhibition of wild-type human partial length RIPK3 (M1 to Q307 residues) expressed in bacterial expression system assessed as residual activity at 1 uM by Kinomescan method relative to control
[10] = biological target: MAP/microtubule affinity-regulating kinase 3 (Homo sapiens) (UniProt P27448); assay: Inhibition of wild-type human full length MARK3 (M1 to L729 residues) expressed in bacterial expression system assessed as residual activity at 1 uM by Kinomescan method relative to control
[11] = biological target: Serine/threonine-protein kinase Sgk1 (Homo sapiens) (UniProt O00141); assay: Inhibition of wild-type human partial length SGK1 (I60 to L431 residues) expressed in mammalian expression system assessed as residual activity at 1 uM by Kinomescan method relative to control
[12] = biological target: MAP kinase-activated protein kinase 2 (Homo sapiens) (UniProt P49137); assay: Inhibition of wild-type human partial length MAPKAPK2 (V48 to D345 residues) expressed in bacterial expression system assessed as residual activity at 1 uM by Kinomescan method relative to control
[13] = biological target: Calcium/calmodulin-dependent protein kinase kinase 2 (Homo sapiens) (UniProt Q96RR4); assay: Inhibition of wild-type human partial length CAMKK2 (D65 to V471 residues) expressed in bacterial expression system assessed as residual activity at 1 uM by Kinomescan method relative to control
[14] = biological target: Dual specificity tyrosine-phosphorylation-regulated kinase 4 (Homo sapiens) (UniProt Q9NR20); assay: Inhibition of DYRK4 (unknown origin) assessed as residual activity at 1 uM by Kinomescan method relative to control
Dual specificity tyrosine-phosphorylation-regulated kinase 4 (Homo sapiens), sequence (Q9NR20 whole entry): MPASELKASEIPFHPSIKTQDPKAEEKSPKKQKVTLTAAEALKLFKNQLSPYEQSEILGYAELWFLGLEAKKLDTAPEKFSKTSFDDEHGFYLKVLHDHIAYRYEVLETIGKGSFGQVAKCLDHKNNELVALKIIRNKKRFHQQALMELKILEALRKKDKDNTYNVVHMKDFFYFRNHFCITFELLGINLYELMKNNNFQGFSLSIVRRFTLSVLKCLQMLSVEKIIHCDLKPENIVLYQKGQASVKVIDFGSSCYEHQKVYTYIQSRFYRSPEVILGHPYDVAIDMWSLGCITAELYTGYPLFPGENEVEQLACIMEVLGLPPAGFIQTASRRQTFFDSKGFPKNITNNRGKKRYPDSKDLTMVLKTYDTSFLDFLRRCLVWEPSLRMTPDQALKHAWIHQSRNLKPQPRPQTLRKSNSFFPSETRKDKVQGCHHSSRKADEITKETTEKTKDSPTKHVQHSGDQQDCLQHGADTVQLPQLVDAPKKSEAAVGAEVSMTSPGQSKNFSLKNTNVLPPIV

[15] = Permeability ratio across apical side to basolateral side in MDCK2 cells transfected with Bacmam virus containing human BCRP at 3 uM after 90 mins in presence or absence of GF120918 by transwell assay; assay type: ADME, cell-based, Canis lupus familiaris; details: dog, mdck-ii, 1.5 h
[16] = biological target: CDK1/Cyclin A (Homo sapiens) (UniProt P06493+P20248); assay: Inhibition of wild-type human full length CDK1 (M1 to M297 residues) /Cyclin A expressed in mammalian expression system assessed as residual activity at 1 uM by Kinomescan method relative to control
CDK1/Cyclin A (Homo sapiens), sequence (P06493 whole entry, looked up, the tested form may be a part): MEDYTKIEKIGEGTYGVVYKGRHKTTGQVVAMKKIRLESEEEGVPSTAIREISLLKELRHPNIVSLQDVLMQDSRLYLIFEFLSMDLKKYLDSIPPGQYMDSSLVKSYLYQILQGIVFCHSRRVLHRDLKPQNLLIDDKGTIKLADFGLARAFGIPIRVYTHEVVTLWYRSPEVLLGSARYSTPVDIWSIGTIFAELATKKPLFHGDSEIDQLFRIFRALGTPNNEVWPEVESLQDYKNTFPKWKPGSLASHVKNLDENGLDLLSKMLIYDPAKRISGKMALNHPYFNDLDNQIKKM
CDK1/Cyclin A (Homo sapiens), sequence (P20248 whole entry, looked up, the tested form may be a part): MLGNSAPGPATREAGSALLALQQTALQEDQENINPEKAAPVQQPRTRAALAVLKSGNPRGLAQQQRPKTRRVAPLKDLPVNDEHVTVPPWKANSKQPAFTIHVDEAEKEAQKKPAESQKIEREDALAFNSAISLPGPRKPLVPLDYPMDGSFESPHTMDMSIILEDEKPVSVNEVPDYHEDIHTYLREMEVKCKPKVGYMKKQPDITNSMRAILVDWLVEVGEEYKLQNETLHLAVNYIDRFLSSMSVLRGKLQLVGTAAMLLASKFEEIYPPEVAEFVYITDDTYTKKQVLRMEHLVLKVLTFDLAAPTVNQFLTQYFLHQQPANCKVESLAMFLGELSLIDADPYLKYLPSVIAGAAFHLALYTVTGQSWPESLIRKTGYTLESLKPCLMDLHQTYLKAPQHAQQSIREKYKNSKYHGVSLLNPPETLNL

[17] = biological target: Serine/threonine-protein kinase SIK1 (Homo sapiens) (UniProt P57059); assay: Inhibition of wild-type human partial length SIK1 (M1 to Y304 residues) expressed in bacterial expression system assessed as residual activity at 1 uM by Kinomescan method relative to control
Serine/threonine-protein kinase SIK1 (Homo sapiens), sequence (P57059 whole entry, the tested form may be a part): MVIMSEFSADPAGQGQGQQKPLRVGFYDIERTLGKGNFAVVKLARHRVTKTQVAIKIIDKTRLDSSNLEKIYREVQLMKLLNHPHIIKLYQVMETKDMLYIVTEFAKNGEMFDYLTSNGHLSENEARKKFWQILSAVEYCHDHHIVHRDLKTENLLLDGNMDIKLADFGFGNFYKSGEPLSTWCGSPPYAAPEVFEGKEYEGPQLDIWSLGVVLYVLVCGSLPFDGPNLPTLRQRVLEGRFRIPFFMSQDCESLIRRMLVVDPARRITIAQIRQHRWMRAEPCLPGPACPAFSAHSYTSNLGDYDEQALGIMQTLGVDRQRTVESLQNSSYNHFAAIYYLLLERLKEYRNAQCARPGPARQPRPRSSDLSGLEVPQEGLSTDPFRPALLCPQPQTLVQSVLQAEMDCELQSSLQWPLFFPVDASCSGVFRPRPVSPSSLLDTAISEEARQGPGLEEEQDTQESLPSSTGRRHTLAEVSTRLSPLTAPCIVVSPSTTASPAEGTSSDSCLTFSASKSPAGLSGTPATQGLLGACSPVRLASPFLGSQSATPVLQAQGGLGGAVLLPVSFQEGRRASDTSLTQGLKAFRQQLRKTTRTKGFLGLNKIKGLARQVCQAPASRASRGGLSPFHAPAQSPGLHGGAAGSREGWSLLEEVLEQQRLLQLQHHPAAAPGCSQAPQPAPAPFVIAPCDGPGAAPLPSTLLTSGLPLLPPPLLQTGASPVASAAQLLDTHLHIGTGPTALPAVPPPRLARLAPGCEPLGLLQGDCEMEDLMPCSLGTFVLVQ

[18] = biological target: Cyclin-dependent kinase 2/cyclin E1 (Homo sapiens) (UniProt P24864+P24941); assay: Inhibition of wild-type human full length CDK2 (M1 to L298 residues)/Cyclin E expressed in bacterial expression system assessed as residual activity at 1 uM by Kinomescan method relative to control
[19] = biological target: Rho-associated protein kinase 2 (Homo sapiens) (UniProt O75116); assay: Inhibition of wild-type human partial length ROCK2 (M1 to T431 residues) expressed in mammalian expression system assessed as residual activity at 1 uM by Kinomescan method relative to control
[20] = biological target: Ephrin type-A receptor 2 (Homo sapiens) (UniProt P29317); assay: Inhibition of wild type human partial length EPHA2 (T593 to V891 residues) expressed in bacterial expression system assessed as residual activity at 1 uM by Kinomescan method relative to control
Ephrin type-A receptor 2 (Homo sapiens), sequence (P29317 whole entry, the tested form may be a part): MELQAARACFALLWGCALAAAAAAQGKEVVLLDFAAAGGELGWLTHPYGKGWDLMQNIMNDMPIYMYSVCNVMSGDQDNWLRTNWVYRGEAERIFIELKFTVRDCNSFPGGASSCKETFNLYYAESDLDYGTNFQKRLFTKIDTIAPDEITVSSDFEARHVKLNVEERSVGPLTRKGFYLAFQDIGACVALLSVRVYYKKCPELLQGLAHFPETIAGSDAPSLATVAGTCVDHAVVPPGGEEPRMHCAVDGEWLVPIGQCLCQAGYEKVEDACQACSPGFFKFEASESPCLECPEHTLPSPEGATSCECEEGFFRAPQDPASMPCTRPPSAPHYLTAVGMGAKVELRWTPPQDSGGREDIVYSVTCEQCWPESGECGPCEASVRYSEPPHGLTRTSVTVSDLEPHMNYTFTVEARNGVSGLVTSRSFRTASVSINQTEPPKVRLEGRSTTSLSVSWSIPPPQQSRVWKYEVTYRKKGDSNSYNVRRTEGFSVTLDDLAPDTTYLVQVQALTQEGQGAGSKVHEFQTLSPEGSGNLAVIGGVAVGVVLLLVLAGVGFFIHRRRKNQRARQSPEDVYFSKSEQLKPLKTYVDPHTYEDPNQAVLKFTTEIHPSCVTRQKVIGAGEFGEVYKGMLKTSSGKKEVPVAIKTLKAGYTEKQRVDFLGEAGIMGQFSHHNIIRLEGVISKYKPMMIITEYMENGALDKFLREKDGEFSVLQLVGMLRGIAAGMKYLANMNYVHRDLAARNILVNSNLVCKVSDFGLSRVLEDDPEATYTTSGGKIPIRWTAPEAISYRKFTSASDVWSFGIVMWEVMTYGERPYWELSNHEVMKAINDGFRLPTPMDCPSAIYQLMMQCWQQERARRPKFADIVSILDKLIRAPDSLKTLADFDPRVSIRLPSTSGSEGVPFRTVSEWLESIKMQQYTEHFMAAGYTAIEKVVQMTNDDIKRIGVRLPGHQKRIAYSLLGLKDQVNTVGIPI

[21] = biological target: Calcium/calmodulin-dependent protein kinase type 1G (Homo sapiens) (UniProt Q96NX5); assay: Inhibition of wild-type human partial length CAMK1G (M1 to A342 residues) expressed in bacterial expression system assessed as residual activity at 1 uM by Kinomescan method relative to control
[22] = biological target: Mitogen-activated protein kinase kinase kinase kinase 5 (Homo sapiens) (UniProt Q9Y4K4); assay: Inhibition of wild-type human partial length MAP4K5 (M1 to P297 residues) expressed in bacterial expression system assessed as residual activity at 1 uM by Kinomescan method relative to control
[23] = biological target: Serine/threonine-protein kinase TAO1 (Homo sapiens) (UniProt Q7L7X3); assay: Inhibition of wild-type human partial length TAOK1 (M1 to A320 residues) expressed in mammalian expression system assessed as residual activity at 1 uM by Kinomescan method relative to control
[24] = biological target: Glycogen synthase kinase-3 alpha (Homo sapiens) (UniProt P49840); assay: Inhibition of wild-type human full length GSK3A (M1 to S483 residues) expressed in bacterial expression system assessed as residual activity at 1 uM by Kinomescan method relative to control
[25] = biological target: TGF-beta receptor type-1 (Homo sapiens) (UniProt P36897); assay: Inhibition of wild-type human partial length TGFBR1 (D179 to M503 residues) expressed in bacterial expression system assessed as residual activity at 1 uM by Kinomescan method relative to control
[26] = biological target: cGMP-dependent protein kinase 1 (Homo sapiens) (UniProt Q13976); assay: Inhibition of PKG1beta (unknown origin) assessed as residual activity at 1 uM by Kinomescan method relative to control

Work on CCOc1nc(Nc2ccc(C(=O)N3CCOCC3)cc2OC)nc2[nH]ccc12 yielded an Activity [1] of 109%, an Activity [2] of 72.2% and an Activity [3] of 99.8%. It also gave an Activity [4] of 96.1%, an Activity [5] of 92.1% and an Activity [6] of 37.4%. For the same molecule, the Activity [7] was 92.3%, the Activity [8] was 98% and the Activity [9] was 108%. For the same molecule, the Activity [10] was 92.4%, the Activity [11] was 96.6% and the Activity [12] was 91.6%. For the same molecule, the Activity [13] was 81.6%, the Activity [14] was 94.6% and the Ratio [15] was 3.1. It also gave an Activity [16] of 91.4%, an Activity [17] of 101% and an Activity [18] of 92.1%. For the same molecule, the Activity [19] was 91.3%, the Activity [20] was 106% and the Activity [21] was 106%. For the same molecule, the Activity [22] was 101%, the Activity [23] was 89.9% and the Activity [24] was 87.8%. The Activity [25] was 96.6% and the Activity [26] was 90.3%.
